The test system of data set [1] is L. (V.) panamensis-infected hMDMs. In words: ROS generation in L. (V.) panamensis-infected hMDMs (H2DCFDA flow cytometry). In kind it is cell-based, human. The method, then:
(§1) Next, we detached the cells with ethylenediaminetetraacetic acid (EDTA)/trypsin (Lonza, MD, USA) and 2',7'-dichlorodihydrofluorescein diacetate (H2DCFDA) tagged on a 5 μM fluorescent tube (Sigma-Aldrich) in order to identify intracellular ROS and/or 4-amino-5-methylamino-2′,7′-difluorofluorescein (DAF-FM; Sigma-Aldrich) for NO production in a 5% CO2 atmosphere for 45 min at 37°C. ROS and NO were quantified using flow cytometry (FACS Canto II) at a wavelength of 480 nm. Untreated cells were used as negative controls, while cells treated with 0.0001% H2O2 and 1 μM phorbol myristate acetate were used as ROS production (positive) controls. LPS (10 ng/mL) and phytohemagglutinin (PHA-M) (10 μL/mL) (Invitrogen) were used as positive controls for NO production.

Data set [2] has the same test system. In words: NO production in L. (V.) panamensis-infected hMDMs (DAF-FM flow cytometry). Format: cell-based, human. To be noted: compound at EC50, 24, 48 and 72 h. The method, then:
as §1

Data set [3] in a line: Treatment toxicity in hamsters (live weight, ALT, creatinine, BUN). In kind it is in vivo, golden hamster (Mesocrisetus auratus). To be noted: topical 1% ointment. From the text:
The hamsters were monitored every 4 weeks to assess their appearance and weight and the lesion size. We categorized each compound’s effectiveness pre- and posttreatment as follows: (i) cure (complete disappearance of lesions), (ii) improvement (>10% reduced lesion area), and (iii) therapeutic failure or nonresponse (increased lesion size). The health status was monitored weekly for 3 months (12 weeks) posttreatment. After 3 months, the hamsters were euthanized in a CO2 chamber. We performed histopathological analysis after necropsy of the affected tissues and organs. In addition, we evaluated treatment cytotoxicity using LW monitoring and biochemical parameters (alanine aminotransferase [ALT], creatinine, and blood urea nitrogen [BUN]) pretreatment and 45 days after ointment administration.

In data set [4] the test system is L. (V.) panamensis promastigotes. In words: Antileishmanial activity in L. (V.) panamensis promastigotes (resazurin, 72 h). Format: cell-based, Leishmania (Viannia) panamensis. To be noted: L. (V.) panamensis promastigotes, ± SD. The method, then:
They were treated with quinoline alkaloid–like compounds at a concentration of 100, 10, 1, 0.1, and 0.01 μg/mL for 72 h at 26°C. Next, we determined antileishmanial activity using the resazurin method (Sigma-Aldrich). Promastigotes treated with amphotericin B (Sigma-Aldrich) and pentamidine (Sanofi-Aventis, Gentilly, France) were used as parasite death (positive) controls. Results were expressed as the medial effective concentration (EC50) using Prism GraphPad software for nonlinear regression analysis (https://www.graphpad.com/scientific-software/prism/).
All assays required at least three independently duplicated experiments. We determined cytotoxicity against hMDMs and effectivity in L. (V) panamensis promastigotes according to each treatment’s mortality (compound and concentration) using Eq 1, where the control mean fluorescence intensity (MFI) was 100% viability: Validityinhibition(%)=100−[MIFexposedcells/MIFunexposedcells×100] (1)
We used GraphPad Prism nonlinear regression analysis to estimate the percentage mortality with regard to CC50 and EC50. […] The antileishmanial activity with regard to promastigotes was classified as active according to Eq 2: Active=EC50<[LC50/2], (2) where LC50 is the median lethal concentration. We also used GraphPad Prism nonlinear regression analysis to determine the intracellular antileishmanial activity (concentration vs. response), depending on the infection (number of infected cells) and parasite burden (number of parasites/cell) obtained in experimental conditions. Parasite inhibition was estimated using Eq 3, where the plate MFI is 100% parasites: Infectioninhibition(%)=100−[(MIFexposedparasites/MIFunexposedparasites×100)] (3)

The text below walks through data of paper PMC7769561, “Antileishmanial activity of synthetic analogs of the naturally occurring quinolone alkaloid N-methyl-8-methoxyflindersin” (PLoS ONE, 2020).

What is called EC50 is the concentration giving half of the maximal effect. “1,2,3,4-tetrahydro(benzo)-3-quinolin-ol [Compound 2]”: the ROS generation entry is on record as “decrease in ROS generation” in data set [1] (compound at EC50, 48 h posttreatment) and “increase in ROS generation” in data set [1] (compound at EC50, first 4 h). Also, the “NO production compared to untreated infected hMDMs” value in data set [2] is “do not modulate the induction of NO production”. Further, in data set [3], the Cytotoxicity-related clinical manifestations entry is on record as “No cytotoxicity-related clinical manifestations”. Besides, in data set [3], the Live weight posttreatment entry is recorded as “no evident changes during treatment”. For the same substance, in data set [4], the “EC50 Intracellular promastigotes” value was determined as 3.4 ± 1.1 µg/mL. Further, in data set [4] (read-out: EC50 Intracellular promastigotes (converted)), the EC50 was 17 µM.
